Reference: US20250186408A1, “TREATMENT OF PHARMACORESISTANT EPILEPSY” (Katholieke Universiteit Leuven, priority 2021, published 2025)
Read-outs that look alike come from different tables or passages of the source.

Key:
Caco-2 permeability = type: in vitro ADME; conditions: human; for recovery at 10 μM: Caco-2, Caco-2, 10 μM; for Papp A→B at 10 μM / Papp B→A at 10 μM: Caco-2, pH 6.5 and 7.4, 10 μM; for Papp A→B at 10 μM: apical to basolateral; for Papp B→A at 10 μM: basolateral to apical
Text: In vitro ADME profiling of compounds was done by Eurofins Panlabs Inc (St Charles, MO, USA) using their ADME-Tox service (Cat Ref P375, Tier 1 ADME Panel). […] (28). The atom-based log P calculation method, called OsirisP, uses as an increment system and adds contributions of every atom based on its atom type. The prediction engine distinguishes a total of 368 atom types and was optimized using a training set of more than 5000 molecules with experimentally determined log P values. The free prediction engine has proven to outperform many alternative calculation methods (29).
Caco-2 cells were derived from a human colorectal adenocarcinoma. For permeability assays, cells were seeded at 1×10^5 cells/cm2 in 96 Multiscreen™ plates (Millipore) and used at days 21-25 post-seeding. Cells were used for 15 consecutive passages in culture. HBSS with 10 mM MES at pH 6.5 (apical side) or HBSS with HEPES at pH 7.4 (basolateral side) were used as the transport buffers. Test compounds were added at 10 μM concentration (final solvent concentration of 1% DMSO) to the apical side to determine apical to basolateral (A-B) transport and to the basal side to determine basolateral to apical (B-A) transport. For inhibition studies, 100 μM verapamil was included on both the A and B sides. Aliquots were taken from the donor side (A-B transport) at time zero and the end point, and from the receiver side (B-A transport) at the end point. Propranolol, labetalol, ranitidine, and colchicine (P-glycoprotein substrate) were included in each assay. Samples were analysed by HPLC-MS/MS for quantification. Papp (cm/sec) was calculated from the following equation: […]
Where VR is the volume of the receiver, C is the concentration of the test compound (either at the donor or receiver side and at mid-point or end point of the incubation), Δt is the incubation time (seconds) and A is the surface area of the cell monolayer (0.11 cm^2).

ADORA2A = ADORA2A (Homo sapiens, UniProt P29274); assay: Calcium Flux ADORA2A Agonist; type: cell-based; conditions: for EC50: read-out: RC50, result type EC50; for Emax: read-out: Max response
Procedure: (≤0.2% DMSO concentration). Assays were performed in 1× dye loading buffer consisting of 1× Dye (DiscoverX, Calcium No Wash^PLUS kit, Catalog No. 90-0091), 1× Additive A and 2.5 mM Probenecid in HBSS/20 mM HEPES. Probenecid was prepared fresh. Prior to testing, media was aspirated from cells and replaced with 25 μL dye loading buffer. Cells were incubated for 45 min at 37° C. and then 20 min at RT. For agonist determination, 25 μL of 2× compound in HBSS/20 mM HEPES was added using a FLIPR Tetra (MDS). […] 25 μL of 2× sample was added and cells were incubated for 30 min at RT in the dark to equilibrate plate temperature. After incubation, antagonist determination was initiated by addition of 25 μL of 1× compound with 3×EC80 agonist using FLIPR. For both agonist and antagonist formats, activity was measure on a FLIPR Tetra (MDS). Calcium mobilization was monitored for 2 min with a 5 sec baseline read.
FLIPR read—Area under the curve, was calculated for the entire 2 min read.

GABAA = GABAA (Homo sapiens, UniProt P14867+P18507+P47870); assay: Ion Channel GABAA Blocker; type: cell-based; conditions: read-out: Max response
HTR3A = target: T1, HTR3A (Homo sapiens, UniProt P46098); assay: Ion Channel HTR3A Opener; type: cell-based; conditions: for Emax: Ion Channel HTR3A Opener, read-out: Max response
T1 sequence (P46098 24-478): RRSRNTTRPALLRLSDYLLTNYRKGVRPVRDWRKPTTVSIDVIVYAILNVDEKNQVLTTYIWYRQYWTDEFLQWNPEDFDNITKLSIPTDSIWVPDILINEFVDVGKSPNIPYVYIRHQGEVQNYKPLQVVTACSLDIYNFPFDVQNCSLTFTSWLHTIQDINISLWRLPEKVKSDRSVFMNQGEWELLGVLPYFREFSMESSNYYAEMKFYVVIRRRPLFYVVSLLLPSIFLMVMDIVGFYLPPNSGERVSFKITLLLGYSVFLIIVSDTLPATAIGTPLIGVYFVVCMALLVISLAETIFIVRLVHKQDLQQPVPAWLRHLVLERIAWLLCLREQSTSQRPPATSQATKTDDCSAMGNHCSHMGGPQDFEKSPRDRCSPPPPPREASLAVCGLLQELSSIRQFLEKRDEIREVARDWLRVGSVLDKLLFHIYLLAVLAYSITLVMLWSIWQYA

INSR = target: T2, INSR (Homo sapiens, UniProt P06213); assay: Binding (KINOMEscan) INSR Inhibitor; conditions: for IC50: read-out: RC50, result type IC50; for Emax: read-out: Max response
T2 construct: purchased Eurofins DiscoverX Corporation 87-1003DR; host or cells: E. coli BL21-derived host (T7 phage) or HEK-293
Procedure: For most assays, kinase-tagged T7 phage strains were grown in parallel in 24-well blocks in an E. coli host derived from the BL21 strain. E. coli were grown to log-phase and infected with T7 phage from a frozen stock (multiplicity of infection=0.4) and incubated with shaking at 32° C. until lysis (90-150 min). The lysates were centrifuged (6,000×g) and filtered (0.2 μm) to remove cell debris. The remaining kinases were produced in HEK-293 cells and subsequently tagged with DNA for qPCR detection. Streptavidin-coated magnetic beads were treated with biotinylated small molecule ligands for 30 min at RT to generate affinity resins for kinase assays. The liganded beads were blocked with excess biotin and washed with blocking buffer (SeaBlock (Pierce), 1% BSA, 0.05% Tween 20, 1 mM DTT) to remove unbound ligand and to reduce non-specific phage binding. […] All reactions were performed in polypropylene 384-well plates in a final volume of 0.02 mL. […] The beads were then re-suspended in elution buffer (1×PBS, 0.05% Tween 20, 0.5 μM non-biotinylated affinity ligand) and incubated at RT with shaking for 30 min. The kinase concentration in the eluates was measured by qPCR.
The kinase concentration in the eluates was measured by qPCR. qPCR reactions were assembled by adding 2.5 μL of kinase eluate to 7.5 μL of qPCR master mix containing 0.15 μM amplicon primers and 0.15 μM amplicon probe. The qPCR protocol consisted of a 10 min hot start at 95° C., followed by 35 cycles of 95° C. for 15 sec, 60° C. for 1 min.
Binding constants (Kds) were calculated with a standard dose-response curve using the Hill equation: […]

[1] = read-out: percentual recovery, apical to basolateral direction
[2] = read-out: percentual recovery, basolateral to apical direction

Chain of ADORA2A (P29274 whole entry): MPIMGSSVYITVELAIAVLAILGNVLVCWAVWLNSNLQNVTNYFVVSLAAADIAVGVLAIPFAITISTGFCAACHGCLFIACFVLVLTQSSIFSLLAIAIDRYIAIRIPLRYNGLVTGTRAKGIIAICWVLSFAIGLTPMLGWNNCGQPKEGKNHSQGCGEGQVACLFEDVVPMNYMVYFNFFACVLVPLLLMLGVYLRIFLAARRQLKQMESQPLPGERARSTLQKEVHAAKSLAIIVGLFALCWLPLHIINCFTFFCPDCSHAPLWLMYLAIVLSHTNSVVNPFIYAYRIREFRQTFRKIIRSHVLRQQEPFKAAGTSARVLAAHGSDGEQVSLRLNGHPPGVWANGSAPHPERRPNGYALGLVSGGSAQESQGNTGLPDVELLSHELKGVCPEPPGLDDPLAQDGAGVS
T2 sequence (P06213 28-1382): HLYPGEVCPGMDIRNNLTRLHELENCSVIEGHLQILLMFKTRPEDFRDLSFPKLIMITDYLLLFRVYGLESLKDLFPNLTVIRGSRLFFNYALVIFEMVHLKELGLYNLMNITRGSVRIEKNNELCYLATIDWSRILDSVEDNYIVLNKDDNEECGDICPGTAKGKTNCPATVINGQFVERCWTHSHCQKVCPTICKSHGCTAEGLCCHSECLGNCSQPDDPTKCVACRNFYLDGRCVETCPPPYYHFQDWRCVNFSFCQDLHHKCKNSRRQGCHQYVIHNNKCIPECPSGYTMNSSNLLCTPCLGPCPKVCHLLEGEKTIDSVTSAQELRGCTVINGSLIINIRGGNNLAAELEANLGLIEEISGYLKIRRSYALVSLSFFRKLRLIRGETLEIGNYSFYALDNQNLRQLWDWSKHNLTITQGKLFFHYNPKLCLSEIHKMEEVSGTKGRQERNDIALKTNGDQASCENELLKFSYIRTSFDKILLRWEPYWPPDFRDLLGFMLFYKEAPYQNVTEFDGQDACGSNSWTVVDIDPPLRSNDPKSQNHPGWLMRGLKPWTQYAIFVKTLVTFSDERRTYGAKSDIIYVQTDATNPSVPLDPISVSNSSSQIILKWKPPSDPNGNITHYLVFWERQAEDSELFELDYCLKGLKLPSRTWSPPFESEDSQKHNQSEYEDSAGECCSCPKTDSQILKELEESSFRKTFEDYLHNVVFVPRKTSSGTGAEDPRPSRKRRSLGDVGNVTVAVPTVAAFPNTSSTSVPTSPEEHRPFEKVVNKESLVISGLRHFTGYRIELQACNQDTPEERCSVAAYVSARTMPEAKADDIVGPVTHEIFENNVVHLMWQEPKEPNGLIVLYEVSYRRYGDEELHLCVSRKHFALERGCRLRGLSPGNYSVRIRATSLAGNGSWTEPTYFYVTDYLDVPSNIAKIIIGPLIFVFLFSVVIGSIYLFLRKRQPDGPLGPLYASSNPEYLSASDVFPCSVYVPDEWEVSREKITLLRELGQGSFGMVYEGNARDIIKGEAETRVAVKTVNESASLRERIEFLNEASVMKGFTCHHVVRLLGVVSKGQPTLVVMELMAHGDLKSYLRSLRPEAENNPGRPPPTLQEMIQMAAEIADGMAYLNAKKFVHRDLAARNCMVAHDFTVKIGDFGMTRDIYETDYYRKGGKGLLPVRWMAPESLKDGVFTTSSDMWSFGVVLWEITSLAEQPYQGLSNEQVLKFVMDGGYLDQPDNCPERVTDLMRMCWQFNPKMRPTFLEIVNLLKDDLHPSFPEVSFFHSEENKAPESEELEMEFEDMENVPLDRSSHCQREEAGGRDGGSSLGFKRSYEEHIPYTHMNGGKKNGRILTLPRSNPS
Chain of GABAA (P14867 28-456): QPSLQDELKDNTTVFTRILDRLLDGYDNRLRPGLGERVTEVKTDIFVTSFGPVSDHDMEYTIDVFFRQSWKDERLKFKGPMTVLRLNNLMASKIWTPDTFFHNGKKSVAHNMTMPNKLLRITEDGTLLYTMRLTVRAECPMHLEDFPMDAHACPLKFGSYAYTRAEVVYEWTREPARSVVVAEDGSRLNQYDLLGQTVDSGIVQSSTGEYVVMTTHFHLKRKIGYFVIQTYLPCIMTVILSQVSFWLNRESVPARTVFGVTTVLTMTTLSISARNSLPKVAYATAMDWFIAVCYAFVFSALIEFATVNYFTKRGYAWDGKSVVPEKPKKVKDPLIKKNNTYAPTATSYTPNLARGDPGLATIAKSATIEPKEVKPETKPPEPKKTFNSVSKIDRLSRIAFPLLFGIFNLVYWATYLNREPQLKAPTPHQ
Chain of GABAA (P47870 26-512): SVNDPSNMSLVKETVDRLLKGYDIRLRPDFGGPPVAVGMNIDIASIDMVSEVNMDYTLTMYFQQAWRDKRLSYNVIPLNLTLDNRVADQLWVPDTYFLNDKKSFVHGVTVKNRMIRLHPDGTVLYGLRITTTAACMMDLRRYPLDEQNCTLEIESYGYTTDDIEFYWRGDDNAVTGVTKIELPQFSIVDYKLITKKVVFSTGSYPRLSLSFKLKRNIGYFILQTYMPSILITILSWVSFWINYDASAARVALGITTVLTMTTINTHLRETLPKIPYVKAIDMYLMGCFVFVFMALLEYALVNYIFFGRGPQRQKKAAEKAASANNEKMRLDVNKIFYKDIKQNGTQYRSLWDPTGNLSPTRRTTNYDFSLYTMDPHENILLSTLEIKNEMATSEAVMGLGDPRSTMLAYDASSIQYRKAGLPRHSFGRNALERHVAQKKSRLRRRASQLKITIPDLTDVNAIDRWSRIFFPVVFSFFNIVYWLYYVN
Chain of GABAA (P18507 40-475): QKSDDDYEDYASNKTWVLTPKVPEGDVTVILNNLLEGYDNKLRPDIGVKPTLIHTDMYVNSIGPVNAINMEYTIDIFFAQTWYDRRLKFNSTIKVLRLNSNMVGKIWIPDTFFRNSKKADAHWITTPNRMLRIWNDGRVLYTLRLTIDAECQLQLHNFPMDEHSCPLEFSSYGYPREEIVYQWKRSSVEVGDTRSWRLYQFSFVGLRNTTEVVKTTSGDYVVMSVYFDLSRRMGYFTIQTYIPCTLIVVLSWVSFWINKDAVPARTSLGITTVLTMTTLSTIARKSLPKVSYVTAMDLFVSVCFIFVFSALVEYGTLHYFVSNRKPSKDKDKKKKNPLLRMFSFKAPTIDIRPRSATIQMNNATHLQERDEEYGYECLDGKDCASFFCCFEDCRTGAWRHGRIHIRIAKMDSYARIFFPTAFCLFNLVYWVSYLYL

Work on `CC(C)(C)c1ccc(C#CC(O)c2ccccc2)cc1` (racemic) [Compound 3.3, rac-3-(4-(tert-butyl)phenyl)-1-phenylprop-2-yn-1-ol] yielded a recovery at 10 μM (Caco-2 permeability; [1]) of 6%, a recovery at 10 μM (Caco-2 permeability; [2]) of 15% and a Papp A→B at 10 μM (Caco-2 permeability) of 0.4 ×10⁻⁶ cm/s. The Papp B→A at 10 μM (Caco-2 permeability) was 0.1 ×10⁻⁶ cm/s, the EC50 (ADORA2A; Calcium Flux ADORA2A Agonist) was greater than 10 µM and the Emax (ADORA2A) was 1.8%. The Emax (GABAA) was 8.7%, the EC50 (HTR3A) was greater than 10 µM and the Emax (HTR3A) was 0%. For the same compound, the IC50 (INSR; Binding INSR Inhibitor) was greater than 10 µM and the Emax (INSR) was 10.3%.
With `Clc1cccc(C#Cc2n[nH]c3ncccc23)c1` [Compound 10.1, 3-((3-chlorophenyl)ethynyl)-1H-pyrazolo[3,4-b]pyridine] the recovery at 10 μM (Caco-2 permeability; [1]) was 13%, the recovery at 10 μM (Caco-2 permeability; [2]) was 44% and the Papp A→B at 10 μM (Caco-2 permeability) was 3.3 ×10⁻⁶ cm/s. It also gave a Papp B→A at 10 μM (Caco-2 permeability) of 0.7 ×10⁻⁶ cm/s, an Emax (ADORA2A; Calcium Flux ADORA2A Agonist) of 3% and an EC50 (ADORA2A; Calcium Flux ADORA2A Agonist) greater than 10 µM. For the same compound, the Emax (GABAA) was 5.2%, the EC50 (HTR3A) was greater than 10 µM and the Emax (HTR3A) was 3.4%. The Emax (INSR; Binding INSR Inhibitor) was 0% and the IC50 (INSR; Binding INSR Inhibitor) was greater than 10 µM.
